Values after ≈ are worked out from the molar mass of the structure shown. Values joined by “and” are separate entries in the source; they are usually repeats but may differ in a detail not shown here. Equal entries are not always repeated. Where two headings read alike, the source gives them in different places.
Legend:
[1] = system: E. coli MG1655 ΔacrAB; assay: microbe, parasite or virus in culture; format: cell-based, Escherichia coli; conditions: for MIC: Escherichia coli, MG1655
[2] = system: MRSA strain BAA1762; assay: Neutropenic mouse thigh infection model; format: in vivo, Swiss Webster mice
[3] = in vivo; conditions: female, ICR, mouse, ip, 200 mg/kg
[4] = biological target: ecFabI (Escherichia coli (strain K12), UniProt P0AEK4); assay: ecFabI inhibition kinetics; format: biochemical
[5] = system: S. aureus RN4220; assay: MIC microbroth dilution, S. aureus RN4220; format: cell-based, Staphylococcus aureus; conditions: for MIC: Staphylococcus aureus; for Staphylococcus aureus MIC (μg/mL) RN4220: 2-pyridones table
[6] = biological target: T1, saFabI (Staphylococcus aureus (strain MRSA252), UniProt Q6GI75); assay: Jump dilution assay with saFabI; format: biochemical; conditions: preincubation with NADP+ and saFabI, jump dilution; read-out: residence time tR
[7] = biological target: M. tuberculosis enoyl-ACP reductase InhA (Mycobacterium tuberculosis (strain ATCC 25618 / H37Rv), UniProt P9WGR1); assay: InhA inhibition kinetics; format: biochemical
[8] = system: M. tuberculosis H37Rv; assay: MIC microbroth dilution, M. tuberculosis H37Rv; format: cell-based; conditions: Mycobacterium tuberculosis, H37RV, read-out: Mycobacterium tuberculosis MIC (μg/mL) H37Rv
[9] = biological target: bpFabV (Burkholderia pseudomallei, UniProt Q63TE9); format: biochemical; conditions: read-out: Burkholderia pseudomallei IC50 (μM), bpFabV
[10] = biological target: YpFabV (Yersinia pestis, UniProt Q8Z9U1); assay: biochemical
[11] = biological target: T1, saFabI; assay: saFabI inhibition kinetics; format: biochemical
[12] = biological target: bpFabI (Burkholderia pseudomallei, UniProt A0A0H3HP34); assay: biochemical
[13] = system: F. tularensis LVS; assay: microbe, parasite or virus in culture; format: cell-based; conditions: Francisella tularensis, read-out: Francisella tularensis MIC (μg/mL) LVS, 2-pyridones table
[14] = biological target: Francisella tularensis FabI (Francisella tularensis subsp. tularensis (strain SCHU S4 / Schu 4), UniProt Q5NGQ3); assay: biochemical
[15] = system: Bt38; assay: microbe, parasite or virus in culture; format: cell-based; conditions: Burkholderia pseudomallei, read-out: Burkholderia pseudomallei MIC (μg/mL) Bt38
[16] = [S]/KS = 0.19, binds E-NAD+ binary complex, single point progress curve analysis, read-out: Ki^app
[17] = binds E-NAD+ binary complex, single point progress curve analysis, read-out: Ki
[18] = RN4220, S. aureus RN4220, read-out: MIC
[19] = Ki^app (nM), saFabI, [S]/KS = 2
[20] = RN4220, 2-pyridones table, read-out: Staphylococcus aureus MIC (μg/mL) RN4220
[21] = Staphylococcus aureus Ki (in brackets under IC50), 2-pyridones table

CCCCCCc1ccc(Oc2ccccc2)c(O)c1 [PT04, 5-hexyl-2-phenoxyphenol, reference compound]
MIC [1]: 14.8 µM (≈ 4 µg/mL)
decrease of bacterial burden in the infected thigh ([2]; 100 mg/kg dose, MRSA BAA1762, neutropenic mouse): 0.9 log cfu/g tissue
AUC(0-t) [3]: 11800 ng·h/mL
Cmax [3]: 5100 ng/mL
Tmax [3]: 1 h
half-life [3]: 4.5 h
Ki [4, 16]: 32.2 nM
Ki [4, 17]: 0.2 nM

Oc1ccccc1Oc1ccccc1 [PT51, reference compound]
MIC [5, 18]: 687 µM

Oc1cc(Cl)ccc1Oc1ccccc1 [PT52]
MIC [1]: 0.1 µM (≈ 0.0221 µg/mL)
residence time [6]: 30 min
Ki [4, 16]: 26.9 nM
Ki [4, 17]: 0.1 nM

Cc1ccc(Oc2ccccc2)c(O)c1 [PT53, reference compound]
MIC [5, 18]: 20 µM

Oc1cc(F)ccc1Oc1ccccc1 [PT55]
MIC [1]: 1.2 µM (≈ 0.245 µg/mL)
Ki [4, 16]: 92.6 nM
Ki [4, 17]: 1.1 nM

Cn1cc(Oc2ccc([N+](=O)[O-])cc2)c(=O)cc1CCl [PT151]
Mycobacterium tuberculosis enzyme, inhibition at 1 μM ([7]; at 1 μM, [E] = 50 nM): No

Cc1cc([N+](=O)[O-])ccc1Oc1cn(C)c(CCl)cc1=O [PT152]
MIC ([8]; 4-pyridones table): 12.5 µg/mL (≈ 40.5 µM)
IC50 [7]: 2250 nM

CCCCCCc1cc(=O)c(Oc2ccc(N)cc2)cn1C [PT157]
MIC ([8]; 4-pyridones table): 50 µg/mL (≈ 166 µM)
IC50 [7]: 424 nM
IC50 [9]: 1 µM and 0.87 µM
IC50 [10]: 130 nM

CCCCCCc1cc(=O)c(Oc2ccccc2C#N)cn1C [PT159]
MIC ([8]; 4-pyridones table): 50 µg/mL (≈ 161 µM)
MIC ([5]; RN4220, 4-pyridones table, read-out: Staphylococcus aureus MIC (μg/mL) RN4220): 4 µg/mL
MIC [5, 18]: 12.9 µM
Ki ([11]; Ki (nM), saFabI): 11 ± 0.9 nM
Ki [11, 19]: 41 ± 3.4 nM
Ki ([11]; Staphylococcus aureus Ki (nM), 4-pyridones table): 11 nM
IC50 [7]: 629 nM

CCCCCCc1cc(=O)c(Oc2cccnc2C#N)cn1C [PT167]
MIC ([8]; 4-pyridones table): 100 µg/mL (≈ 321 µM)
IC50 [7]: 979 ± 152 nM

CCCCCCc1cc(=O)c(Oc2ccccn2)cn1C [PT168]
MIC ([8]; 4-pyridones table): 50 µg/mL (≈ 175 µM)
IC50 [7]: 1780 ± 315 nM

CCCCCCc1cc(=O)c(Oc2cccnc2N)cn1C [PT169]
MIC ([8]; 4-pyridones table): 12.5 µg/mL (≈ 41.5 µM)
IC50 [7]: 379 ± 41 nM

Cc1ccn(Cc2ccccc2Cl)c(=O)c1 [PT170]
MIC ([8]; 2-pyridones table): > 50 µg/mL
IC50 [12]: > 1000 nM
MIC [5, 20]: > 500 µg/mL
MIC [5, 18]: > 500 µM
IC50 [11]: > 1000 nM
Ki ([11]; Ki (nM), saFabI): 229 ± 5.2 nM
Ki [11, 19]: 849 ± 19.3 nM
Ki [11, 21]: 229 ± 5.2 nM
MIC [13]: 50 µg/mL (≈ 214 µM)
IC50 [7]: > 1700 nM
IC50 [14]: 202 ± 17 nM

CCCCCCc1ccn(Cc2ccccc2C)c(=O)c1 [PT171]
MIC [15]: 154 µg/mL (≈ 542 µM)
MIC ([8]; 2-pyridones table): 25 µg/mL (≈ 88.2 µM)
IC50 [12]: ~400 nM
MIC [5, 20]: 5 µg/mL
IC50 [11]: 150 ± 22 nM
Ki ([11]; Ki (nM), saFabI): 11.9 ± 1.8 nM
Ki [11, 19]: 44.3 ± 6.6 nM
Ki [11, 21]: 11.9 ± 1.8 nM
MIC [13]: 3.65 µg/mL (≈ 12.9 µM)
IC50 [7]: 130 ± 21 nM
Ki ([4]; Ki^app (nM), [S]/KS = 0.19): 116 ± 4.6 nM
IC50 [14]: 83 ± 32 nM

CCCCCCc1ccn(Cc2ccccc2Cl)c(=O)c1 [PT172]
MIC [15]: 250 µg/mL (≈ 823 µM)
MIC ([8]; 2-pyridones table): 25 µg/mL (≈ 82.3 µM)
IC50 [12]: 260 ± 9.3 nM
Staphylococcus aureus MIC (μg/mL) RN4220 [5]: 8 µg/mL
MIC [5, 20]: 5 µg/mL
MIC [5, 18]: 26.3 µM
IC50 [11]: 379 ± 88 nM
Ki ([11]; Ki (nM), saFabI): 11 ± 0.4 nM
Ki [11, 19]: 40.7 ± 1.3 nM
Ki [11, 21]: 11 ± 0.4 nM
MIC [13]: 4.04 µg/mL (≈ 13.3 µM)
IC50 [7]: 240 ± 44 nM
IC50 [14]: 61 ± 13 nM

CCCCCCc1ccn(Cc2cccc(N)c2C)c(=O)c1 [PT173]
Escherichia coli MIC (μg/mL) MG1655 ΔacrAB ([1]; 2-pyridones table): >425 µg/mL
MIC [1]: > 425 µM
MIC [15]: 36.3 µg/mL (≈ 122 µM)
MIC ([8]; 2-pyridones table): 50 µg/mL (≈ 168 µM)
IC50 [12]: 460 ± 10 nM
MIC [5, 18]: 6.7 µM
IC50 [11]: 68 ± 14 nM
Ki ([11]; Ki (nM), saFabI): 2 ± 0.4 nM
Ki ([11]; Ki, saFabI): 1.97 nM
Ki [11, 19]: 7.3 ± 1.5 nM
Ki [11, 21]: 2 ± 0.4 nM
MIC [13]: 3.57 µg/mL (≈ 12 µM)
IC50 [7]: > 3200 nM
Ki ([4]; Ki^app (nM), [S]/KS = 0.19): 246 ± 10.1 nM
IC50 [14]: 83 ± 15 nM

CCCCCCc1ccn(Cc2cccc([N+](=O)[O-])c2C)c(=O)c1 [PT174]
MIC [15]: 250 µg/mL (≈ 761 µM)
MIC [5, 20]: 50 µg/mL
IC50 [11]: 248 ± 20 nM
MIC [13]: 2.12 µg/mL (≈ 6.46 µM)
IC50 [14]: 85 ± 11 nM

CCCCCCc1ccn(Cc2cccnc2F)c(=O)c1 [PT175]
MIC [15]: 78.3 µg/mL (≈ 272 µM)
MIC ([8]; 2-pyridones table): 50 µg/mL (≈ 173 µM)
IC50 [12]: > 1000 nM
MIC [5, 20]: 50 µg/mL
IC50 [11]: > 1000 nM
MIC [13]: 14 µg/mL (≈ 48.4 µM)
IC50 [7]: > 4000 nM

CCCCCCc1ccn(Cc2ccccc2)c(=O)c1 [PT179]
MIC [5, 20]: 32 µg/mL
MIC [5, 18]: 119 µM
IC50 [11]: 192 ± 30 nM
Ki ([11]; Ki (nM), saFabI): 19 ± 2.7 nM
Ki [11, 19]: 70.4 ± 9.8 nM
Ki [11, 21]: 19 ± 2.7 nM

CCCCCCc1cc(=O)c(Oc2cccnc2F)cn1C [PT190]
MIC ([8]; 4-pyridones table): 25 µg/mL (≈ 82.1 µM)
IC50 [7]: 641 ± 55 nM

CCCCCCc1ccc(Oc2ccccc2)c(=O)[nH]1 [PT191]
IC50 [12]: > 3000 nM
IC50 [11]: > 2000 nM
Ki ([11]; Ki (nM), saFabI): 196 ± 22.2 nM
Ki [11, 19]: 729 ± 82.4 nM
Ki [11, 21]: 196 ± 22.2 nM
Mycobacterium tuberculosis enzyme, inhibition ([7]; [I] = 2 μM, [E] = 100 nM): 10%
IC50 [14]: > 10000 nM

CCCCCCc1ccc(Oc2ccccc2C)c(=O)[nH]1 [PT192]
MIC [15]: 8.35 µg/mL (≈ 29.3 µM)
Staphylococcus aureus MIC (μg/mL) RN4220 [5]: No
MIC [13]: 9.2 µg/mL (≈ 32.2 µM)

CCCCCCc1ccn(Cc2ccccc2C#N)c(=O)c1 [PT420]
MIC [15]: 44.4 µg/mL (≈ 151 µM)
MIC [5, 20]: 32 µg/mL
MIC [5, 18]: 109 µM
IC50 [11]: 746 ± 165 nM
Ki ([11]; Ki (nM), saFabI): 29.6 ± 9.5 nM
Ki [11, 19]: 110 ± 1.7 nM
Ki [11, 21]: 29.6 ± 0.5 nM
MIC [13]: 10.2 µg/mL (≈ 34.7 µM)
IC50 [14]: 727 ± 84 nM

CCCCCCc1ccn(Cc2cccc(F)c2)c(=O)c1 [PT421]
MIC [5, 20]: 2 µg/mL
IC50 [11]: 297 ± 64 nM

CCCCCCc1ccn(Cc2ccc(F)cc2)c(=O)c1 [PT422]
MIC [5, 20]: 1 µg/mL
IC50 [11]: 222 ± 22 nM

CCCCCCc1ccn(Cc2ccccc2F)c(=O)c1 [PT423]
MIC [5, 20]: 16 µg/mL
IC50 [11]: 165 ± 22 nM

CCCCCCc1ccn(Cc2ccc([N+](=O)[O-])cc2)c(=O)c1 [PT424]
IC50 [11]: 1500 ± 200 nM
Ki [10]: 11000 nM

CCCCCCc1ccn(Cc2ccc(N)cc2)c(=O)c1 [PT425]
MIC [5, 20]: ~32 µg/mL
IC50 [11]: 380 ± 20 nM

CCCCCCc1ccn(Cc2ccc(Cl)cc2)c(=O)c1 [PT426]
MIC [5, 20]: ~32 µg/mL
IC50 [11]: 185 ± 18 nM

CCCCCCc1ccn(Cc2ccc(C(C)=O)cc2)c(=O)c1 [PT427]
MIC [5, 20]: > 128 µg/mL
IC50 [11]: 394 ± 40 nM

Cc1onc(-c2ccccc2)c1C(=O)N[C@@H]1C(=O)N2[C@@H]1SC(C)(C)[C@@H]2C(=O)O [oxacillin]
in vivo antibacterial efficacy ([2]; MRSA BAA1762, neutropenic mouse thigh, FIG. 8): no in vivo antibacterial efficacy
